In PubChem BioAssay AID179 (DTP/NCI, 2004) one finds EC50, IC50 and outcome data, which are given here for 69 compounds.

This experiment has as its system CEM cells HIV-1 protection, formazan growth assay. As to the kind of experiment: NCI AIDS Antiviral Assay. The following applies: for IC50: measured here: growth of uninfected CEM cells. As for the experimental part: The ability of compounds to protect human CEM cells from HIV-1 infection is measured as a screen for new compounds capable of inhibiting the HIV virus. Five concentrations of drug were tested on uninfected and infected cells and cell growth was measured using a soluble formazan assay. […] Compounds that provided at least 50% protection were retested. Compounds that provided at least 50% protection on retest were listed as moderately active. Compounds that reproducibly provided 100% protection were listed as confirmed active. […] Note that the inability to provide protection could be due to toxicity.

Structures are written as SMILES. Activity calls are given as the source filed them.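 How the source made its calls: active means compounds giving half or more protection of infected cells from virus-caused growth loss, again on retest; inactive means the rest.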 Where a SMILES comes first, the peptide text is derived from it. The star is where a group is joined. OSu = O=C1CCC(=O)N1O*; Bn = c1ccc(C*)cc1

A word on the EC50: it is the concentration that produces a half-maximal response. The IC50 is the concentration that inhibits the measured activity by half. A low value points to higher potency.

For the compound `NCCCCC(=O)NC(CCCCNC(=O)OCc1ccccc1)C(=O)NCCCCC(=O)NC(CCCCNC(=O)OCc1ccccc1)C(=O)NCCCCC(=O)NC(CCCCNC(=O)OCc1ccccc1)C(=O)NCCCCC(=O)NC(CCCCNC(=O)OCc1ccccc1)C(=O)NCCCCC(=O)NC(CCCCNC(=O)OCc1ccccc1)C(=O)NCCCCC(=O)NC(CCCCNC(=O)OCc1ccccc1)C(=O)NCCCCC(=O)NC(CCCCNC(=O)OCc1ccccc1)C(=O)O` (stereo not given), the EC50 was more than 7.08 µM and the IC50 was more than 7.08 µM.

Consider `N#C/C(=C\NC(=S)Nc1ccccc1Cl)C(=O)c1ccc2ccccc2c1`, for which the EC50 was more than 200 µM and the half-maximal inhibitory concentration (IC50) was 141 µM.

As for `CN(CCNC(=O)c1cn(C)c2c1ccc1ccccc12)CCNC(=O)c1cn(C)c2c1ccc1ccccc12`, the EC50 was more than 200 µM and the half-inhibitory concentration (IC50) worked out at 3.09 µM.

As to `CC(=O)Nc1nc(N)nc(NC(C)=O)c1N=O`, the EC50 was more than 200 µM and the IC50 was found to be 30.9 µM.

For the compound `Cc1occc1C(=S)Nc1ccc(Cl)c(C(=O)OCC(F)(F)F)c1`, the EC50 is 0.0195 µM and the concentration for half-maximal inhibition (IC50) was found to be 19.1 µM.

On to `O=C1c2ccccc2-c2cc(S)c([N+](=O)[O-])cc21`, for which the EC50 is more than 200 µM and the IC50 came out at 145 µM.

On to `COP(=O)(OC)C(C)(C)NC(=O)NC(F)(F)F`, for which the EC50 was more than 200 µM and the IC50 is more than 200 µM.

Take `Cc1cc(C)c(O)c(CN(Cc2ccccn2)Cc2ccccn2)c1`: the outcome was inactive.

In the case of `C1=CC(=NN=P(c2ccccc2)(c2ccccc2)c2ccccc2)C=C1`, the outcome was inactive.

For `NC12CC3CC(C1)CC(C(=O)O)(C3)C2`, the EC50 was more than 1070 µM and the half-maximal inhibitory concentration (IC50) was more than 1070 µM.

Take `CCN(C(=O)N[C@@H](C)C(=O)N[C@@H](Cc1ccccc1)C(=O)OC)c1ccccc1`: the result was inactive.

As for `CCOC(=O)C(=Cn1c(=S)[nH]c2ccc([N+](=O)[O-])cc21)C(=O)OCC`, the EC50 is more than 200 µM and the IC50 was 77.6 µM.

In the case of `Brc1ccc2[nH]c3nc(N/N=C/c4cccnc4)nnc3c2c1`, the EC50 was more than 200 µM and the IC50 is more than 200 µM.

On to `CC(C)(C)C(=O)C1CC(=O)c2ccccc2C1=O` (stereo not given), for which the EC50 is more than 29.5 µM and the concentration for half-maximal inhibition (IC50) is more than 29.5 µM.

Consider `COc1cc([C@H]2Oc3cc([C@H]4Oc5cc(O)cc(O)c5C(=O)[C@@H]4O)ccc3O[C@@H]2CO)ccc1O`, for which the EC50 is more than 200 µM and the IC50 came to 66.1 µM.

With `COC(=O)/C(C#N)=C1\NC(=O)CC(c2ccccc2)C1C#N` (stereo not given), the EC50 was more than 200 µM and the IC50 stood at 57.5 µM.

As to `Cc1ccc2[nH]c(N(C)C)nc2c2nc(Cl)nc1-2`, the EC50 was more than 200 µM and the IC50 amounted to 117 µM.

On to `COc1ccc(N=N/C(=N/NC(=O)c2ccccc2)c2ccc(N(CCC#N)CCC#N)cc2C)cc1`, for which the EC50 is more than 200 µM and the IC50 is 11.5 µM.

As for `NC(Cc1ccc(OCc2ccccc2)cc1)C(=O)NC(Cc1ccccc1)C(=O)ON1C(=O)CCC1=O` (stereo not given) (H-Tyr(Bn)-Phe-OSu; configuration not given here), the result was inactive.

Regarding `N#CC(NC12CC3CC(CC(C3)C1)C2)c1ccccc1` (stereo not given), the result was inactive.

As for `CN1C=Nc2c(ncn2C2CCC(CO)O2)C1O` (stereo not given), the EC50 is more than 200 µM and the IC50 is more than 200 µM.

`CC(C)(C)C1CCC(N=C(N)CSS(=O)(=O)O)CC1` (stereo not given): the EC50 is more than 200 µM and the half-inhibitory concentration (IC50) amounted to 24 µM.

As to `O=c1[nH][nH]c(=O)c2nc(Nc3ccccc3)ncc12`, the EC50 was more than 28.2 µM and the IC50 was more than 28.2 µM.

For the compound `CCOC(=O)/C(=C/c1ccc([N+](=O)[O-])cc1)N(CC)CC`, the EC50 was more than 324 µM and the 50% inhibitory concentration (IC50) was more than 324 µM.

Take `O=c1c2cc([N+](=O)[O-])ccc2n2n1CCCCC2`: the EC50 is more than 200 µM and the IC50 is more than 200 µM.

As to `CCOC(=O)C(CC)c1cc2n(c(=O)c1C#N)CCC21OCCO1` (stereo not given), the EC50 is more than 200 µM and the 50% inhibitory concentration (IC50) was more than 200 µM.

With `CC(=O)O[C@H]1CCC2[C@@H]3CCC4Nc5c(cnn5-c5ccccc5)C[C@]4(C)C3CC[C@@]21C` (stereo not given in full), the outcome was inactive.

Take `CN(NC(=O)/C(=C/c1c(O)ccc2ccccc12)NC(=O)c1ccccc1)c1cn[nH]c(=O)c1Cl`: the EC50 is more than 200 µM and the IC50 was more than 200 µM.

`O=C(O)CCCCCCCCC(=O)O`: the EC50 is more than 178 µM and the concentration for half-maximal inhibition (IC50) is more than 178 µM.

Take `OC1C(CBr)OC(OC[C@H](COCc2ccccc2)OCc2ccccc2)C(O)C1O` (stereo not given in full): the EC50 is more than 214 µM and the IC50 was more than 100 µM.

As to `CC(=O)C1=C(N=[N+]=[N-])c2cccc3cccc(c23)C1=O`, the result was inactive.

Take `COC(CNC(=O)CNC(=O)c1ccc(C(F)(F)F)cc1)OC`: the outcome was inactive.

As for `CCN(CC)CC1CCCCN1CC(=O)N1c2cc(Cl)ccc2NC(=O)CC1C` (stereo not given), the 50% effective concentration (EC50) was 97.7 µM and the half-maximal inhibitory concentration (IC50) is more than 200 µM.

Take `COC1=CC(=O)C2C=C3C(CO)=CCC(O)C3(C)CC2C1=O` (stereo not given): the EC50 is more than 200 µM and the IC50 amounted to 3.8 µM.

`O=C(O)Cc1cccc2c1Oc1ccccc1S2`: the EC50 is more than 5620 µM and the concentration for half-maximal inhibition (IC50) is 204 µM.

On to `c1cc2nnsc2s1`, for which the EC50 was more than 251 µM and the IC50 was more than 251 µM.

For `CC(C)(C)c1cc(Cc2ccc(S(C)(=O)=O)cc2)c(O)c(C(C)(C)C)c1`, the outcome was inactive.

Consider `CC(NNC(=O)c1ccncc1)c1ccc(Cl)cc1Cl` (stereo not given), for which the EC50 was more than 200 µM and the half-inhibitory concentration (IC50) came to 132 µM.

`NC(=O)c1cc(O)c(O)c(O)c1`: the EC50 was more than 200 µM and the half-maximal inhibitory concentration (IC50) was found to be 17 µM.

Take `CC(=O)OCc1cc(=O)n2c([nH]c3ccccc32)c1C#N`: the EC50 is more than 20 µM and the IC50 is more than 20 µM.

`COc1ccc(/C=C/C(=N/NC(=O)N/N=C(/C=C/c2ccc(OC)cc2)C(C)C)C(C)C)cc1`: the EC50 was more than 200 µM and the IC50 came to 37.2 µM.

`S=C(Nc1ccc2c3c(cccc13)CC2)Nc1ccc2c3c(cccc13)CC2`: the EC50 was more than 200 µM and the IC50 was 42.7 µM.

With `CC1(C(=O)O)CCOc2ccccc21` (stereo not given), the result was inactive.

With `COc1ccc(C(=O)Oc2c(C#N)sc3c2c(=O)n(-c2ccccc2)c(=S)n3-c2ccccc2)cc1`, the EC50 is more than 200 µM and the IC50 was 5.13 µM.

Consider `Cc1cccc(C(C)(C)C)c1NC(=O)C(=O)C(C(=O)/C=C\c1ccccc1)C1OC(=O)c2ccccc21` (stereo not given), for which the EC50 was more than 214 µM and the IC50 came out at 58.9 µM.

For the compound `COC(=O)C(CCC#N)(CCC#N)C(=O)OC`, the EC50 is more than 21.9 µM and the half-inhibitory concentration (IC50) is more than 21.9 µM.

Turning to `CC(C)C(=O)Oc1cc2c(=O)oc3c(OC(=O)C(C)C)c(OC(=O)C(C)C)cc4c(=O)oc(c1OC(=O)C(C)C)c2c34`, the EC50 is more than 50.1 µM and the IC50 was more than 50.1 µM.

Take `CCOC(=O)/C(=C\c1cccc(C)c1)C(C)=O`: the EC50 is more than 407 µM and the 50% inhibitory concentration (IC50) stood at 63.1 µM.

With `CC1(C)CC2(C)ON=C(c3ccccc3)N2c2ccccc2N1` (stereo not given), the EC50 is 57.5 µM and the 50% inhibitory concentration (IC50) was found to be 105 µM.

As for `NC(=O)NC1C(c2ccccc2)=NOC1C(N)=O` (stereo not given), the EC50 was more than 200 µM and the half-maximal inhibitory concentration (IC50) was more than 200 µM.

Turning to `C=C1C(=O)OC2(C)CCC1CC1OC1(C)CCC=C(C)CCC2O` (stereo not given), the EC50 is more than 389 µM and the 50% inhibitory concentration (IC50) worked out at 32.4 µM.

Take `CCOc1snc(C(Cl)(Cl)Cl)c1Cl`: the EC50 was more than 200 µM and the half-inhibitory concentration (IC50) is more than 200 µM.

On to `CC(C)(CO)/[N+]([O-])=C/c1ccccc1`, for which the EC50 is more than 200 µM and the IC50 was more than 200 µM.

Consider `CCCCCCCCCC=C(c1cc(Cl)c(OC)c(C(=O)O)c1)c1cc(Cl)c(OC)c(C(=O)O)c1`, for which the EC50 was 263 µM and the IC50 was 316 µM.

Regarding `C[N+](C)(CCCCCC[N+](C)(C)CC(=O)O)CC(=O)O`, the EC50 was more than 550 µM and the IC50 is more than 550 µM.

Turning to `COc1ccccc1/C=N/Nc1nnc2c3ccccc3c3ncccc3c2n1`, the EC50 is more than 200 µM and the IC50 was determined as 138 µM.

In the case of `O=S(=O)(/N=S(/Nc1ccccc1)C(F)(F)Cl)c1ccccc1` (stereo not given), the EC50 is more than 200 µM and the IC50 was more than 200 µM.

For `C[C@H](OC(=O)/C=C/c1ccc(O)c(O)c1)[C@H](C)OC(=O)/C=C/c1ccc(O)c(O)c1`, the EC50 is more than 200 µM and the half-inhibitory concentration (IC50) stood at 3.47 µM.

As for `O=c1oc2c/c(=C\c3ccccn3)c(=O)c3cccc1c3-2`, the EC50 was more than 200 µM and the IC50 was 3.72 µM.

For the compound `C[C@]12CCCC(=O)C1(O)C[C@H](C(=O)O)CC2` (stereo not given in full), the outcome was inactive.

Consider `CC(C)(C)OC(=O)c1cc(NC(=S)c2ccccc2)ccc1Cl`, for which the concentration for a half-maximal effect (EC50) is 0.363 µM and the half-inhibitory concentration (IC50) was 19.1 µM.

Take `COC(=O)C1=CC[C@@H]2C(C(=O)O)=CO[C@@H](OC3OC(CO)C(O)C(O)C3O)[C@H]12` (stereo not given in full): the EC50 was more than 200 µM and the half-inhibitory concentration (IC50) was more than 200 µM.

With `CC1(C)NC(=O)N(C(C)(C)C(=O)O)C1=O`, the EC50 is more than 200 µM and the IC50 is more than 200 µM.

On to `Cc1ccc2nn(-c3ccc(O)cc3)nc2c1`, for which the result was inactive.

For the compound `COc1cc(C(=O)Oc2ccc3c(c2)OCO3)cc(OC)c1OC`, the EC50 was more than 200 µM and the 50% inhibitory concentration (IC50) is more than 200 µM.

Regarding `O=C1OCCC12CN(Cc1ccccc1)N=N2` (stereo not given), the EC50 is more than 200 µM and the IC50 is more than 200 µM.

As for `CC1=CC(=O)C2[C@@H](C1)C1(C)C(=O)C34OC(=O)C[C@@](C)([C@H]1C(=O)[C@@H]2C)[C@]3(C)CC[C@]12C[C@@H](C)C[C@H](CN41)O2` (stereo not given in full), the result was inactive.

For `COC(=O)C(CSSCC(C(=O)NC(Cc1ccccc1)C(=O)NCC(=O)OC(C)(C)C)N1C(=O)CCC1=O)NC(=O)OCc1ccccc1` (stereo not given), the EC50 was more than 200 µM and the IC50 was 20.4 µM.

As to `COc1ccccc1Nc1nc(NNC(=O)Cc2ccccc2)nc(NNC(=O)c2ccncc2)n1`, the EC50 was more than 50.1 µM and the IC50 is more than 50.1 µM.
